Test results published in patent US20150105252A1, “SUBSTITUTED PYRAZOLES AS HERBICIDES” (E I DU PONT DE NEMOURS AND COMPANY, priority 2013, published 2015).

Key:
corn = assay: Test A postemergence; type: in vivo, Zea mays
How it was run: (§1)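 Visual injury ratings, 0 = no effect to 100 = complete control, taken about 10 days after treatment against untreated controls. Test chemicals, in a non-phytotoxic surfactant-containing solvent, were sprayed onto soil preemergence or onto one- to two-leaf plants (2–10 cm) postemergence, in loam–sand soil under greenhouse conditions.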

velvetleaf = assay: Test A postemergence; type: in vivo, Abutilon theophrasti
How it was run: as §1

nutsedge, yellow = assay: Test C postemergence; type: in vivo, Cyperus esculentus; conditions: for Nutsedge, Yellow plant response rating: scale 0 to 100
From the text: Seeds of plant species selected from blackgrass (Alopecurus myosuroides), ryegrass, Italian (Italian ryegrass, Lolium multiflorum), wheat (winter wheat, Triticum aestivum), galium (catchweed bedstraw, Galium aparine), corn (Zea mays), crabgrass, large (large crabgrass, Digitaria sanguinalis), foxtail, giant (giant foxtail, Setaria faberii), johnsongrass (Sorghum halepense), lambsquarters (Chenopodium album), morningglory (Ipomoea coccinea), nutsedge, yellow (yellow nutsedge, Cyperus esculentus), pigweed (redroot pigweed, Amaranthus retroflexus), ragweed (common ragweed, Ambrosia elation), soybean (Glycine max), barnyardgrass (Echinochloa crus-galli), oilseed rape (Brassica napus), waterhemp (common waterhemp, Amaranthus rudis), oat, wild (wild oat, Avena fatua), kochia (Kochia scoparia), Surinam grass (Brachiaria decumbens), foxtail, green (green foxtail, Setaria viridis), goosegrass (Eleusine indica), bromegrass, downy (downy bromegrass, Bromus tectorum), nightshade (eastern black nightshade, Solanum ptycanthum), cocklebur (common cocklebur, Xanthium strumarium), cupgrass, woolly (woolly cupgrass, Eriochloa villosa), bermudagrass (Cynodon dactylon), sunflower, (common oilseed sunflower, Helianthus annuus), Russian thistle (Salsola kali), and velvetleaf (Abutilon theophrasti) were planted into a blend of loam soil and sand and treated preemergence with test chemicals formulated in a non-phytotoxic solvent mixture which included a surfactant.
At the same time, plants selected from these crop and weed species and also chickweed (common chickweed, Stellaria media), canarygrass (littleseed canarygrass, Phalaris minor), and deadnettle (henbit deadnettle, Lamium amplexicaule), were planted in pots containing Redi-Earth® planting medium (Scotts Company, 14111 Scottslawn Road, Marysville, Ohio 43041) comprising spaghnum peat moss, vermiculite, wetting agent and starter nutrients and treated with postemergence applications of test chemicals formulated in the same manner. Plants ranged in height from 2 to 18 cm (1- to 4-leaf stage) for postemergence treatments. Treated plants and controls were maintained in a greenhouse for 13 to 15 days, after which time all species were compared to controls and visually evaluated. Plant response ratings, summarized in Table C, are based on a scale of 0 to 100 where 0 is no effect and 100 is complete control. A dash (-) response means no test result.

sedge, umbrella = assay: Test C flooded paddy test; type: in vivo, Cyperus difformis; conditions: Flood
How it was run: (§2)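 Ratings were visual and made relative to untreated controls after 13 to 15 greenhouse days.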

barnyardgrass [1] = assay: Test C flooded paddy test; type: in vivo, Echinochloa crus-galli; conditions: Flood
How it was run: as §2

rice = assay: Test C flooded paddy test; type: in vivo, Oryza sativa; conditions: Flood
How it was run: as §2

ducksalad = assay: Test C flooded paddy test; type: in vivo, Heteranthera limosa; conditions: Flood
How it was run: as §2

barnyardgrass [2] = assay: Test B flood; type: in vivo, Echinochloa crus-galli; conditions: 250 g ai/ha, visual rating on 0 to 100 scale (0 no effect, 100 complete control), 13 to 15 days
How it was run: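 Plants were grown to the 2-leaf stage and pots flooded to 3 cm above soil. Compounds were applied directly into the paddy water, with depth kept for the test. After 13–15 days in greenhouse, response was rated visually against controls on a 0 (no effect) to 100 (complete control) scale.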

[3] = Postemergence, 1000 g ai/ha, visual rating after approx. 10 days, 0 to 100 scale (0 no effect, 100 complete control)
[4] = postemergence, 250 g ai/ha, scale 0 to 100 (0 no effect, 100 complete control)
[5] = postemergence, 62 g ai/ha, scale 0 to 100, 0 no effect, 100 complete control
[6] = postemergence, 125 g ai/ha, scale 0 to 100, 0 no effect, 100 complete control
[7] = 31 g ai/ha, scale 0 to 100 (0 no effect, 100 complete control)
[8] = 62 g ai/ha, scale 0 to 100 (0 no effect, 100 complete control)
[9] = Postemergence, 500 g ai/ha, visual rating after approx. 10 days, 0 to 100 scale (0 no effect, 100 complete control)
[10] = postemergence, 125 g ai/ha, about 10 days, visual rating on 0 to 100 scale (0 no effect, 100 complete control)
[11] = Postemergence, 500 g ai/ha, 0 to 100 scale (0 no effect, 100 complete control)

| Compound | Corn plant response rating (corn; [3]) | Velvetleaf plant response rating (velvetleaf; [3]) | Nutsedge, Yellow plant response rating (nutsedge, yellow; Postemergence, 31 g ai/ha) | Plant response rating, Nutsedge, Yellow (nutsedge, yellow; [4]) | Plant response rating, Nutsedge, Yellow (nutsedge, yellow; [5]) | Plant response rating, Nutsedge, Yellow (nutsedge, yellow; [6]) | Plant response rating, Sedge, Umbrella (sedge, umbrella; [7]) | Plant response rating, Sedge, Umbrella (sedge, umbrella; [8]) | Plant response rating, Sedge, Umbrella (sedge, umbrella; 125 g ai/ha, scale 0 to 100) | Plant response rating, Sedge, Umbrella (sedge, umbrella; 250 g ai/ha, scale 0 to 100) | Corn plant response rating (corn; [10]) | Plant response rating, Barnyardgrass (barnyardgrass [1]; [7]) | Plant response rating, Barnyardgrass (barnyardgrass [1]; [8]) | Plant response rating, Barnyardgrass (barnyardgrass [1]; 125 g ai/ha, scale 0 to 100) | Plant response rating, Barnyardgrass (barnyardgrass [1]; 250 g ai/ha, scale 0 to 100) | Plant response rating, Rice (rice; [7]) | Plant response rating, Rice (rice; [8]) | Plant response rating, Rice (rice; 125 g ai/ha, scale 0 to 100) | Plant response rating, Rice (rice; 250 g ai/ha, scale 0 to 100) | Velvetleaf plant response rating (velvetleaf; [10]) | other results |
| --- | --- | --- | --- | --- | --- | --- | --- | --- | --- | --- | --- | --- | --- | --- | --- | --- | --- | --- | --- | --- | --- |
| CCc1cc(C(=O)NCC(F)(F)F)nn1Cc1cccc(OC(F)(F)F)c1 [Compound 20] | 30 | 90 | 0 | 0 | 0 | 0 | – | – | – | – | – | – | – | – | – | – | – | – | – | – | – |
| CCc1cc(C(=O)NOC(C)C)nn1Cc1cccc(OC(F)(F)F)c1 [Compound 70] | – | – | 0 | 20 | 0 | 0 | 75 | 75 | 85 | 90 | 60 | 0 | 0 | 45 | 65 | 0 | 0 | 25 | 50 | 80 | Corn plant response rating (corn; [9]): 70; Velvetleaf plant response rating (velvetleaf; [9]): 90; Plant response rating, Ducksalad (ducksalad; [7]): 30; Plant response rating, Ducksalad (ducksalad; [8]): 40; Plant response rating, Ducksalad (ducksalad; 125 g ai/ha, scale 0 to 100): 85; Plant response rating, Ducksalad (ducksalad; 250 g ai/ha, scale 0 to 100): 85 |
| O=C(NCC(F)(F)F)c1cc(CCF)n(Cc2ccnc(C(F)(F)F)c2)n1 [Compound 175] | – | – | – | – | – | – | – | – | – | – | 60 | – | – | – | – | – | – | – | – | 60 | Corn plant response rating (corn; [11]): 90; Velvetleaf plant response rating (velvetleaf; [11]): 80; Plant response rating, Barnyardgrass (barnyardgrass [2]): 35 |
| CCCNC(=O)c1cc(CC)n(Cc2cccc(OC(F)(F)F)c2)n1 [Compound 27] | 60 | 100 | 0 | 0 | 0 | 0 | – | – | – | – | – | – | – | – | – | – | – | – | – | – | – |
| CCCNC(=O)c1cc(OCC)n(Cc2ccnc(OC(F)F)c2)n1 [Compound 136] | – | – | – | 5 | – | 5 | – | – | – | – | 60 | – | – | – | – | – | – | – | – | – | Corn plant response rating (corn; [11]): 100; Plant response rating (scale of 0 to 100 where 0 is no effect and 100 is complete control), Nutsedge, Yellow (nutsedge, yellow; Postemergence, 31 g ai/ha, visually evaluated after 13 to 15 days): 5; Nutsedge, Yellow plant response rating (nutsedge, yellow; postemergence, 62 g ai/ha): 5; Plant response rating, Barnyardgrass (barnyardgrass [2]): 50 |
| CCONC(=O)c1cc(CC)n(Cc2cccc(OC(F)(F)F)c2)n1 [Compound 72] | – | – | 0 | 0 | – | 0 | 50 | 60 | 65 | 65 | 70 | 0 | 20 | 20 | 20 | 0 | 0 | 0 | 30 | 80 | Corn plant response rating (corn; [9]): 80; Velvetleaf plant response rating (velvetleaf; [9]): 90; Plant response rating, Ducksalad (ducksalad; [7]): 0; Plant response rating, Ducksalad (ducksalad; [8]): 70; Plant response rating, Ducksalad (ducksalad; 125 g ai/ha, scale 0 to 100): 75; Plant response rating, Ducksalad (ducksalad; 250 g ai/ha, scale 0 to 100): 75; Nutsedge, Yellow plant response rating (nutsedge, yellow; postemergence, 62 g ai/ha): 0 |
| Cc1cc(C(=O)NCC(F)(F)F)nn1Cc1ccnc(C(F)(F)F)c1 [Compound 74] | 100 | 100 | 0 | 15 | – | 5 | 0 | 0 | 0 | 90 | – | 0 | 15 | 15 | 15 | 0 | 15 | 15 | 15 | – | Plant response rating, Ducksalad (ducksalad; [7]): 0; Plant response rating, Ducksalad (ducksalad; [8]): 0; Plant response rating, Ducksalad (ducksalad; 125 g ai/ha, scale 0 to 100): 0; Plant response rating, Ducksalad (ducksalad; 250 g ai/ha, scale 0 to 100): 90; Nutsedge, Yellow plant response rating (nutsedge, yellow; postemergence, 62 g ai/ha): 5 |
